Here are results for ten compounds from ChEMBL document CHEMBL5131485, “Synthesis and biological activity evaluation of novel 2,6,9-trisubstituted purine conjugates as potential protein kinases inhibitors” (Bioorg Med Chem Lett, 2022).

Assay [1] has as its system MV4-11. The assay is classed as functional, cell-based. As to conditions: Homo sapiens, dose 1-125 nM, time 24.0 hrs.
In assay [2] the test system is Receptor-type tyrosine-protein kinase FLT3 (Homo sapiens), P36888 [UNDEFINED MUTATION]. As to conditions: MV4-11, dose 5-25 nM, time 1.0 hrs.
For assay [3] the test system is unchanged. As to conditions: MV4-11, dose 5-25 nM, time 1.0 hrs. The source holds these as a separate data set.
Assay [4] has as its system MV4-11. The assay is described as follows: cells. As to conditions: Homo sapiens.
Description: Antiproliferative activity against human MV4-11 cells expressing FLT3-ITD mutant
The target of assay [5] is Cyclin-dependent kinase 2 (Homo sapiens, UniProt P24941).
Description: Inhibition of CDK2 (unknown origin)
Assay [6] deals with Receptor-type tyrosine-protein kinase FLT3 (Homo sapiens, UniProt P36888, ITD).
Description: Inhibition of FLT3 ITD mutant (unknown origin)
Assay [7] has as its system Receptor-type tyrosine-protein kinase FLT3 (Homo sapiens), P36888 [UNDEFINED MUTATION]. As to conditions: MV4-11, dose 5-25 nM, time 1.0 hrs. This is another data set of the same source.
In assay [8] the target is Platelet-derived growth factor receptor alpha (Homo sapiens, UniProt P16234).
Description: Inhibition of PDGFRalpha (unknown origin)
For a further assay, the system named is EOL1. The assay is described as follows: cells. As to conditions: Homo sapiens.
The next assay relates to Kasumi 1. The assay is described as follows: cells. As to conditions: Homo sapiens.
The test system of another assay is K562. The assay is described as follows: cells. As to conditions: Homo sapiens.

Active and inactive are the calls of the source. The calls are words filed in the database; no cut-off is given here.

Chain of Platelet-derived growth factor receptor alpha (P16234 whole entry): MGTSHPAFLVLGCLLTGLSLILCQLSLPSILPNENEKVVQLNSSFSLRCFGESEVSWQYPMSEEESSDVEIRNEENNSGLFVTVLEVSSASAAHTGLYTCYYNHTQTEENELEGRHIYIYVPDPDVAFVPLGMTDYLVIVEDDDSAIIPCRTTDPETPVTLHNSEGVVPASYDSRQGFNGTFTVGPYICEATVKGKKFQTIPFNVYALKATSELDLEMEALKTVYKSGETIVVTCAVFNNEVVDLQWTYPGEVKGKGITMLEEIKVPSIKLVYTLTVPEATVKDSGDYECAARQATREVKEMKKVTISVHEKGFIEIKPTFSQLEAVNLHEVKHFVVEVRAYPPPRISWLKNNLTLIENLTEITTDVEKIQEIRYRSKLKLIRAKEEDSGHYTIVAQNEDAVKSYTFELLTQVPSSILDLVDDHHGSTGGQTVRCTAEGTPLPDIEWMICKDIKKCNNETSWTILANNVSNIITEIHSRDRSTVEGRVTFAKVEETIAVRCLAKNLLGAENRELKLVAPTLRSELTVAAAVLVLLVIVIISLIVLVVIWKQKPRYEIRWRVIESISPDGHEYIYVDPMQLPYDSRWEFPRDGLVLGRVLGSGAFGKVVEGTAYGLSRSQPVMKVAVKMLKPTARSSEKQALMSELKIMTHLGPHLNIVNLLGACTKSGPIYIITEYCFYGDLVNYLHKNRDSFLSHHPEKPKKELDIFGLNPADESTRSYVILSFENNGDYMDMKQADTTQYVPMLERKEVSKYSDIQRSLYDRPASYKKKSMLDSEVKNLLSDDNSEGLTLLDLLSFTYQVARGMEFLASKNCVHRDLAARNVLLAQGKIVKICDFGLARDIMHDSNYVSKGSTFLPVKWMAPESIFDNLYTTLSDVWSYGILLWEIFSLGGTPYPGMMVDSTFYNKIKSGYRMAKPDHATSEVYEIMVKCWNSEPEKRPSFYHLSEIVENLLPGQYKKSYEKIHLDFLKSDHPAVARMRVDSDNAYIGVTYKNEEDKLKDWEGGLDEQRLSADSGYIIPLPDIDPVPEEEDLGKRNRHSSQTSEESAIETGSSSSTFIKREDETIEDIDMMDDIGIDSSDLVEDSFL
Chain of Receptor-type tyrosine-protein kinase FLT3 (P36888 whole entry, looked up, change not shown): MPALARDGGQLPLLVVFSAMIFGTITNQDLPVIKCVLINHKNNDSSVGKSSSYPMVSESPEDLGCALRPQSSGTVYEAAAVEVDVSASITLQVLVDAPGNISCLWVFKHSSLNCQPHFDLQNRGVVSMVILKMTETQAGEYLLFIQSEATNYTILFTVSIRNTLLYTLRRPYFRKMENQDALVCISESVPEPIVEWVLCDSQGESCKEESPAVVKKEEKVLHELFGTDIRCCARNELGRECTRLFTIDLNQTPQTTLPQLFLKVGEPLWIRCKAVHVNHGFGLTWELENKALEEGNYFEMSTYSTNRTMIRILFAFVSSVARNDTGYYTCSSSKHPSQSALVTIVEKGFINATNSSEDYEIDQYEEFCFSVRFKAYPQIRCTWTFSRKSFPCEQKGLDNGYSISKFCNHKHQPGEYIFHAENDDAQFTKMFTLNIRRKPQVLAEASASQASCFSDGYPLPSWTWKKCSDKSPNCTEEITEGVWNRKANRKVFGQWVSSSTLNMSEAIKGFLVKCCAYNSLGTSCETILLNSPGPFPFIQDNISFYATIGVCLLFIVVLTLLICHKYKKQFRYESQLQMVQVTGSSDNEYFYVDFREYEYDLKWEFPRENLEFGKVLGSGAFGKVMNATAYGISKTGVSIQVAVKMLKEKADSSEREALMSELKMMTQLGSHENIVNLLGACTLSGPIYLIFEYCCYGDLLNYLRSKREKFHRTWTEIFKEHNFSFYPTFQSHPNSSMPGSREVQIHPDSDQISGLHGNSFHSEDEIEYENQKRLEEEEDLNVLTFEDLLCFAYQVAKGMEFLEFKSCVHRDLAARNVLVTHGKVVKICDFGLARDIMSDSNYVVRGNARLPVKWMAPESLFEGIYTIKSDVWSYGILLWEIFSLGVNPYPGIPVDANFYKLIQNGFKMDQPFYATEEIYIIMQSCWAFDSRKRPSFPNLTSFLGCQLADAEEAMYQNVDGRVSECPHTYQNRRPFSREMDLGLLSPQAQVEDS
Chain of Receptor-type tyrosine-protein kinase FLT3 (Homo sapiens), P36888 [UNDEFINED MUTATION] (P36888 whole entry, looked up, change not shown): as above
Description for EOL1: Antiproliferative activity against human EOL1 cells expressing IP1L1-PDGFRA fusion protein
Description for K562: Antiproliferative activity against human K562 cells
Description for Kasumi 1: Antiproliferative activity against human Kasumi 1 cells harboring N822K KIT mutant

Usually GI50 stands for the concentration giving 50% growth inhibition. Read a high GI50 as less potent growth inhibition. The term IC50 denotes the concentration needed to halve the response being measured. A low value points to greater potency in that assay. Take `N[C@H]1CC[C@H](Nc2nc(Nc3ccccc3)c3ncn(C4CCCC4)c3n2)CC1`: the result in the assay on MV4-11 [1] was Active. Further, the inhibition entry in assay [2], in assay [3] and in assay [7] was “Active” each time. Also, the 50% growth inhibitory concentration (GI50) in the assay on MV4-11 [4] came out at 0.023 µM; with EOL1, 0.041 µM; with Kasumi 1, 0.278 µM; in the assay with K562, 2.45 µM. Besides, the IC50 in assay [5] is 0.007 µM; in assay [6] it was 0.005 µM; in assay [8] it was 0.196 µM.

As to `N[C@H]1CC[C@H](Nc2nc(NCc3ccccc3)c3ncn(C4CCCC4)c3n2)CC1`, the GI50 was found to be 1.14 µM in the assay with MV4-11 [4], 1.17 µM in the assay with EOL1, 0.988 µM in the assay with Kasumi 1 and 4.22 µM in the assay on K562. Also, the half-maximal inhibitory concentration (IC50) in assay [6] was 2.51 µM; in assay [8], over 20 µM. Besides, the inhibition result in assay [7] is “Active”.

In the case of `NCCCNCCCCNC(=O)c1ccc(CNc2nc(N[C@H]3CC[C@H](N)CC3)nc3c2ncn3C2CCCC2)cc1`, the GI50 turned out to be 0.602 µM with MV4-11 [4], 0.799 µM in the assay on EOL1, 1.92 µM with Kasumi 1 and 7.19 µM with K562. The IC50 in assay [5] came to 0.025 µM; in [6], 1.31 µM; in assay [8] it was 19.8 µM. The inhibition result in assay [7] was “Active”.

Take `NCCCCNC(=O)c1ccc(Nc2nc(N[C@H]3CC[C@H](N)CC3)nc3c2ncn3C2CCCC2)cc1`: the result in the assay with MV4-11 [1] was Active. Besides, the inhibition result in assay [2], in assay [3] and in assay [7] was “Active” each time. For the same compound, the GI50 was found to be 0.023 µM in the assay on MV4-11 [4], 0.015 µM in the assay on EOL1, 4.05 µM with Kasumi 1 and 10.8 µM in the assay on K562. The values for the IC50 in [5], in assay [6] and in [8] were 0.02 µM, 0.003 µM and 0.036 µM, respectively.

With `NCCCCNC(=O)c1ccc(CNc2nc(N[C@H]3CC[C@H](N)CC3)nc3c2ncn3C2CCCC2)cc1`, the GI50 with MV4-11 [4] turned out to be 0.577 µM; with EOL1, 0.676 µM; in the assay with Kasumi 1 it was 2.56 µM; in the assay with K562 it was 8.26 µM. The IC50 in [5] is 0.027 µM; in assay [6] it was 1.65 µM; in assay [8] it was over 20 µM. Moreover, the inhibition result in assay [7] was “Active”.

Consider `NC(=O)c1ccc(Nc2nc(N[C@H]3CC[C@H](N)CC3)nc3c2ncn3C2CCCC2)cc1`, for which, in the assay on MV4-11 [1], the outcome was Active. The inhibition result in assay [2], in assay [3] and in [7] was “Active” each time. In addition, the GI50 in the assay on MV4-11 [4] came to 0.039 µM; with EOL1, 0.04 µM; in the assay with Kasumi 1 it was 4.18 µM; in the assay on K562, 6.13 µM. The IC50 in [5] came to 0.004 µM; in [6] it was 0.002 µM; in assay [8], 0.017 µM.

With `NCCCNCCCCNc1ccc(Nc2nc(N[C@H]3CC[C@H](N)CC3)nc3c2ncn3C2CCCC2)cc1`, the result in the assay with MV4-11 [1] was Active. The inhibition entry in assay [2], in assay [3] and in assay [7] was “Active” throughout. Also, the GI50 in the assay with MV4-11 [4] was determined as 0.052 µM; in the assay with EOL1 it was 0.06 µM; in the assay on Kasumi 1, 1.85 µM; in the assay with K562 it was 2.79 µM. In addition, the figures for the half-inhibitory concentration (IC50) in assay [5], in [6] and in assay [8] were 0.021 µM, 0.006 µM and 0.219 µM, respectively.

In the case of `NCCCCNc1ccc(Nc2nc(N[C@H]3CC[C@H](N)CC3)nc3c2ncn3C2CCCC2)cc1`, the result with MV4-11 [1] was Active. For the same compound, the inhibition entry in assay [2], in assay [3] and in assay [7] was “Active” throughout. Moreover, the GI50 in the assay with MV4-11 [4] was determined as 0.095 µM; in the assay with EOL1 it was 0.171 µM; in the assay with Kasumi 1, 2.74 µM; in the assay on K562 it was 6.29 µM. Moreover, the IC50 in [5] was determined as 0.017 µM; in assay [6], 0.004 µM; in [8], 0.153 µM.

For the compound `NCCCNCCCCNC(=O)c1ccc(Nc2nc(N[C@H]3CC[C@H](N)CC3)nc3c2ncn3C2CCCC2)cc1`, the result with MV4-11 [1] was Active. For the same compound, the inhibition result in assay [2], in assay [3] and in [7] was “Active” in each case. The 50% growth inhibitory concentration (GI50) was determined as 0.025 µM with MV4-11 [4], 0.017 µM with EOL1, 2.91 µM in the assay with Kasumi 1 and 7.37 µM with K562. Further, the figures for the IC50 in assay [5], in [6] and in assay [8] were 0.019 µM, 0.004 µM and 0.041 µM, respectively.

On to `NCCCNCCCCNCCCNc1ccc(Nc2nc(N[C@H]3CC[C@H](N)CC3)nc3c2ncn3C2CCCC2)cc1`, for which the inhibition entry in [2], in assay [3] and in assay [7] was “Active” in each case. Moreover, the GI50 was 0.004 µM with MV4-11 [4], 0.011 µM in the assay on EOL1, 0.647 µM in the assay with Kasumi 1 and 0.896 µM in the assay on K562. The IC50 in assay [5] amounted to 0.031 µM; in [6], 0.01 µM; in [8] it was 0.203 µM.
